How the values were obtained:
[1] = system: Mycobacterium smegmatis ATCC 607; test: Antimicrobial activity against Mycobacterium smegmatis ATCC 607 (agar plate-cylinder); format: cell-based; conditions: standard bleomycin A2 (copper-free) assumed 1,000 mcg potency/mg
Experimental: (§1) 2. ANT[…] MYC[…] ATCC 607 AND BACILLUS SUBTILIS
(§2) The antimicrobial activity was tested against the captioned test organisms by the method of agar plate-cylinder. The activity was recorded on the assumption that the activity of standard sample of bleomycin A2 (copper-free form) is 1,000 mcg poteney/mg.

Bacillus subtilis = test: Antimicrobial activity against Bacillus subtilis (agar plate-cylinder); format: cell-based; conditions: standard bleomycin A2 (copper-free) assumed 1,000 mcg potency/mg
Experimental: as §1, §2

Structure (SMILES) | Antimicrobial potency of Cu-free compound against Mycobacterium smegmatis ATCC 607 [1] [mcg potency/mg] | Antimicrobial potency of Cu-free compound against Bacillus subtilis (Bacillus subtilis) [mcg potency/mg]
Cc1c(N)nc(C(CC(N)=O)NCC(N)C(=O)NCCCNC(C)c2ccccc2)nc1C(=O)NC(C(=O)NC(C)C(O)C(C)C(=O)NC(C(=O)NCCc1nc(-c2nc(C(=O)NCCc3c[nH]cn3)cs2)cs1)C(C)O)C(OC1OC(CO)C(O)C(O)C1OC1OC(CO)C(O)C(OC(N)=O)C1O)c1cnc[nH]1 [Compound 5, 2-(4'-Imidazolyl)ethylamino-(amido)N--[3-((S)-1'-phenylethyl)-aminopropyl]-BLM] | 9846 | 3772
CCCCN(CCCC)CCCNC(=O)C(N)CNC(CC(N)=O)c1nc(N)c(C)c(C(=O)NC(C(=O)NC(C)C(O)C(C)C(=O)NC(C(=O)NCCc2nc(-c3nc(C(=O)NCCCCNC(=N)N)cs3)cs2)C(C)O)C(OC2OC(CO)C(O)C(O)C2OC2OC(CO)C(O)C(OC(N)=O)C2O)c2cnc[nH]2)n1 (centres unmarked) [Compound 12] | 16438 | 4384
Cc1c(N)nc(C(CC(N)=O)NCC(N)C(=O)NCc2ccc(Cl)cc2)nc1C(=O)NC(C(=O)NC(C)C(O)C(C)C(=O)NC(C(=O)NCCc1nc(-c2nc(C(=O)NCCCNC(C)c3ccccc3)cs2)cs1)C(C)O)C(OC1OC(CO)C(O)C(O)C1OC1OC(CO)C(O)C(OC(N)=O)C1O)c1cnc[nH]1 [Compound 24, 3-((S)-1'-phenylethyl)aminopropylamino-(amido)N--[p-chlorobenzyl]-BLM] | 56328 | 1184
CCCCNCCCN(C)CCCNC(=O)C(N)CNC(CC(N)=O)c1nc(N)c(C)c(C(=O)NC(C(=O)NC(C)C(O)C(C)C(=O)NC(C(=O)NCCc2nc(-c3nc(C(=O)NCCC[N+](C)(CCCN(Cc4ccccc4)Cc4ccccc4)Cc4ccccc4)cs3)cs2)C(C)O)C(OC2OC(CO)C(O)C(O)C2OC2OC(CO)C(O)C(OC(N)=O)C2O)c2cnc[nH]2)n1 (centres unmarked) [Compound 50, 3-{N--methyl-N--benzyl-N--[3-(dibenzylamino)propyl]amino}-propylamino-(amido)N--[3-[N--methyl-N--(3-n-butylaminopropyl)]-aminopropyl]-BLM] | 1417 | 376
Cc1c(N)nc(C(CC(N)=O)NCC(N)C(=O)NCCCNC(C)c2ccccc2)nc1C(=O)NC(C(=O)NC(C)C(O)C(C)C(=O)NC(C(=O)NCCc1nc(-c2nc(C(=O)NCCCCNC(=N)N)cs2)cs1)C(C)O)C(OC1OC(CO)C(O)C(O)C1OC1OC(CO)C(O)C(OC(N)=O)C1O)c1cnc[nH]1 [Compound 11, 4-Guanidinobutylamino-(amido)N--[3-((S)-1'-phenylethyl)amino-propyl]-BLM] | 15729 | 7036
CCCCCCCCNC(=O)C(N)CNC(CC(N)=O)c1nc(N)c(C)c(C(=O)NC(C(=O)NC(C)C(O)C(C)C(=O)NC(C(=O)NCCc2nc(-c3nc(C(=O)NCCCN(C)CCCNCc4ccc(Cl)cc4)cs3)cs2)C(C)O)C(OC2OC(CO)C(O)C(O)C2OC2OC(CO)C(O)C(OC(N)=O)C2O)c2cnc[nH]2)n1 (centres unmarked) [Compound 40, 3-{N--methyl-N--[3-(p-chlorobenzyl)aminopropyl]amino}-propylamino-(amido)N--[octyl]-BLM] | 38200 | 1808
Cc1c(N)nc(C(CC(N)=O)NCC(N)C(=O)NC(C)CCCC(C)C)nc1C(=O)NC(C(=O)NC(C)C(O)C(C)C(=O)NC(C(=O)NCCc1nc(-c2nc(C(=O)NCCCN(C)CCCNCc3ccc(Cl)cc3)cs2)cs1)C(C)O)C(OC1OC(CO)C(O)C(O)C1OC1OC(CO)C(O)C(OC(N)=O)C1O)c1cnc[nH]1 (centres unmarked) [Compound 42, 3-{N--methyl-N--[3-(p-chlorobenzyl)aminopropyl]amino}propyl-amino-(amido)N--[1,5-dimethylhexyl]-BLM] | 31834 | 933
